Results taken from patent US20050175599A1, “Process for producing substance” (Kyowa Hakko Kogyo Co., Ltd., priority 2001, published 2005).

System: transformant cell line NS0/LCA-CCR4 producing chimeric anti-CCR4 antibody
Assay: Batch culture of antibody-producing cells in Q10-containing serum fraction-added medium (Example 4)
Type: cell-based, mouse
Settings: 100 μmol/L Q10 (added as SANOMIT), 4th day
Experimental: The batch culture was performed using transformant cell line NS0/LCA-CCR4 (FERM BP-7964) producing chimeric anti-CCR4 antibody as prepared in Reference Example 1. […]
The cumulative number of viable cells is shown as the total sum of the viable cell density multiplied by the time as elapsed. In the present Example, as the viable cell density was measured once, the cumulative number of viable cells was calculated by the following equation as a trapezoidal area formed by the change of the cell density with time related to the inoculated cell density and the measured cell density. Cumulative number of viable cells (cells/mL×days)=(inoculated cell density+measured cell density)×time as elapsed÷2
The specific antibody production rate and the relative specific antibody production rate were calculated respectively by the method described in Example 1.
(3) Quantitative Determination of an Antibody in a Culture Supernatant by IgG-ELISA
The concentration of chimeric anti-CCR4 antibody in the culture supernatant was measured as follows. […]

COC1=C(OC)C(=O)C(C/C=C(\C)CC/C=C(\C)CC/C=C(\C)CC/C=C(\C)CC/C=C(\C)CC/C=C(\C)CC/C=C(\C)CC/C=C(\C)CC/C=C(\C)CCC=C(C)C)=C(C)C1=O [Q10]
cumulative number of cells on the completion of culturing (Q10-free culture 1.59×10^6): 1.34×10^6 cells/mL×days
relative specific antibody production rate (Q10-free culture = 100%): 131.9%
